These results are taken from patent US20220117917A1, “PH-ACTIVATED NANOPARTICLES” (Ohio State Innovation Foundation, priority 2018, published 2022).

On the set-up of data set [1]: species or system mice. To be noted: mouse, in vivo. As for the experimental part:
The tumor targeting capability of the nanoparticles was next investigated in mice. Indocyanine green (ICG) was encapsulated in the nanoparticles for in vivo imaging. […] To confirm the observation from whole animal imaging, various organs were harvested for ex vivo imaging to check the biodistribution of ICG after sacrificing the mice at 24 h. […] The antitumor efficacy and safety of the WIP1 and/or miR-21 inhibitor-laden nanoparticles were also investigated in vivo by treating orthotopic HER18R mammary tumor-bearing mice. The tumors were established by injecting 2,000,000 HER18R cells per animal into the fat pad of 6-8 week-old female nude mice. The tumor-bearing mice were divided randomly into four groups: blank nanoparticles, WIP1 inhibitor-laden nanoparticles, miR-21 inhibitor-laden nanoparticles, and WIP1+miR-21 inhibitors-laden nanoparticles. Mice were treated with 1.0 mg/kg body weight of miR-21 inhibitor and/or 5.0 mg/kg of WIP1 inhibitor encapsulated in the nanoparticles via intravenous injection when the tumor reached a volume of ˜150 mm^3 at 21 days after implantation. […] Moreover, side effect of the drug-laden or blank nanoparticles was negligible.

In another data set the test system is BT474 cells. The data set can be described thus: Cell viability and Western blot. Format: cell-based, human. How it is done: (§1) Immunoblotting. Immunoblotting was performed as described previously (Liu Y, et al. Nature 2015 520:697-701). Briefly, total cell lysates were solubilized in lysis buffer (50 mM Tris, pH 7.5, 150 mM NaCl, 1 mM EDTA, 0.5% NP-40, 0.5% Triton X-100, 1 mM phenylmethylsulfonyl fluoride, 1 mM sodium fluoride, 5 mM sodium vanadate, 1 μg each of aprotinin, leupeptin, and pepstatin per ml). Proteins were resolved by SDS-PAGE gels and then proteins were transferred to PVDF membranes (Bio-Rad). The membranes were blocked with 5% nonfat milk for 1 h at room temperature prior to incubation with indicated primary antibodies. Subsequently membranes were washed and incubated for 1 h at room temperature with peroxidase-conjugated secondary antibodies (Santa Cruz Biotechnology). Following several washes, chemiluminescent images of immunodetected bands on the membranes were recorded on X-ray films using the enhanced chemiluminescence (ECL) system (Perkinelmer) according to the manufacturer's instructions.
(§2) Cell viability assay. Equal numbers of cells were plated in 12 well plates in triplicate. After incubation with indicated reagents for 72 hours, cell viability was quantified using Vi-Cell cell viability analyzer (Beckman Coulter).
On the technique in general: Immunoblotting shows a protein as a band on a membrane.

The test system of a further data set is HER18R cells. In words: Cell viability and Western blot, trastuzumab-resistant cells. Format: cell-based, human. To be noted: along with trastuzumab 1 μg/ml, 72 h.
Data set [2] can be described thus: Electrophoretic stability assay of anti-miR21 oligonucleotide. Format: in vitro ADME. To be noted: 37° C. How it is done: Electrophoretic gel assay. Free anti-miR21 oligonucleotide and in-MW@NP (in PBS or serum) were mixed with loading buffer, and then loaded into 2% wt agarose gel with […] ethidium bromide. Electrophoresis was conducted in 1×TEA buffer at 80 V for 10 min. The result gels were analyzed using a UV illuminator (FluorChem™ E System, CA, USA) to show its location of anti-miR21 oligonucleotide.

The conditions of data set [3]: cited from earlier work.
Another data set deals with HER18 cells. The data set can be described thus: Cell viability and Western blot. The format is cell-based, human. How it is done: as §1, §2
The conditions of data set [4]: cited from earlier work. This is another data set of the same source.
A further data set deals with MDA-MB453 cells. The data set can be described thus: Cell viability. Format: cell-based, human. The following applies: 72 h; mutant p53. How it is done:
as §2

For another data set, the target named is T1, Wip1 (Homo sapiens, UniProt O15297).
T1 sequence (O15297 1-605): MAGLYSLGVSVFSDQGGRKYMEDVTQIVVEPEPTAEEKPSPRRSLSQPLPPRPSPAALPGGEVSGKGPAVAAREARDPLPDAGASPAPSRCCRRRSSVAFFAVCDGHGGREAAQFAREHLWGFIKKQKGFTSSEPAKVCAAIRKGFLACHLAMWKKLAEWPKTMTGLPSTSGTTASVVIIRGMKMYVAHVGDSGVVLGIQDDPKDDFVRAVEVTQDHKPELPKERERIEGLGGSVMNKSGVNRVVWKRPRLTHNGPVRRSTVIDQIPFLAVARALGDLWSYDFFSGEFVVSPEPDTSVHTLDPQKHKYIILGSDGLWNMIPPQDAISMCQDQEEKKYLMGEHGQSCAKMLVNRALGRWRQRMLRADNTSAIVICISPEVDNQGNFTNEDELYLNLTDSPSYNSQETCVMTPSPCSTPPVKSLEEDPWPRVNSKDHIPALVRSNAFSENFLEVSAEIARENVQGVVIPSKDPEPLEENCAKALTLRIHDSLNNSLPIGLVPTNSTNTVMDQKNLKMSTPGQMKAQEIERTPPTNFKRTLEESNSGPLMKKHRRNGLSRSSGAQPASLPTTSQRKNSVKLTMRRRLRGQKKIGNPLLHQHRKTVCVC
The following applies: cited from earlier work.

In the case of `CC1(C)C(/C=C/C=C/C=C/C=C2\N(CCCCS(=O)(=O)O)c3ccc4ccccc4c3C2(C)C)=[N+](CCCCS(=O)(=O)[O-])c2ccc3ccccc3c21` [free ICG, Indocyanine green], in [1], the “ICG fluorescence in liver” value was “weak fluorescence” and the “ICG signal / localization” value was “no notable signal”.

Turning to “anti-miR-21: anti-miR-21 oligonucleotide; in some embodiments UCAACAUCAGUCUGAUAAGCUAG (SEQ ID NO: 5) (further chemistry not given here)”, the “cell proliferation and viability” value in the data set with BT474 cells (HER2+/p53-mutant cells with 17q23 amplification) was “significantly reduced the cell proliferation and viability”. The sensitization to trastuzumab result in the data set with HER18R cells is given as “sensitized”. Besides, the onset of degradation result in data set [2] was “started to degrade in a few minutes”. Besides, the time oligonucleotide observable entry in data set [2] (up to 36 h) is listed as “less than 2 h”. Besides, the stability in blood result in [3] (in vivo) was “relatively unstable in blood”.

For the molecule `Cc1ncc(Cl)cc1NCc1ccc(C(=O)N[C@@H](CC2CCCC2)C(=O)NC2CC2)s1` [GSK2830371], the “sensitivity (cell viability)” value with BT474 cells (72 h, mutant p53) is reported as “notably insensitive”; in the data set on HER18 cells (72 h, wildtype p53) it was “very sensitive”; in the data set with MDA-MB453 cells, “notably insensitive”. Also, the “phosphorylated CHK2 and p21 levels” value in the data set with HER18 cells (immunoblotting) was “significantly increased the levels of phosphorylated CHK2 and the p53-induced p21”. For the same molecule, in data set [4], the solubility in water result was “poor solubility in water”. In addition, the sensitization to trastuzumab result with HER18R cells is given as “sensitized”. For the same molecule, the bioavailability in vivo result in data set [3] was “poor bioavailability in vivo”. Moreover, on Wip1, the “selectivity for Wip1 over other phosphatases” value was “selectivity for Wip1 over 21 other phosphatases”.
